Assay results: patent US6897228B2, “Pyridoxine and pyridoxal analogues: new uses” (Medicure International Inc., priority 2000, dated 2005)

Tested on: male Wistar rats, LAD occlusion and reperfusion
Assay: Rat cardiac ischemia reperfusion model
Type: in vivo
Procedure: Seventy-nine male Wistar rats (200-300 g, Tuck, Rayleigh, Essex, U.K.) were anesthetized with thiopentone sodium (Intraval®, 120 mg/kg i.p.; Rhone-Merrieux, Essex, U.K.). The rats were tracheotomized, intubated and ventilated with a Harvard ventilator (70 strokes/min, tidal volume: 8-10 ml/kg, inspiratory oxygen concentration: 30%). Body temperature was maintained at 38±1° C. The right carotid artery was cannulated and connected to a pressure transducer (Spectramed, P23XL) to monitor mean arterial blood pressure (MAP) and heart rate (HR), which were continuously recorded on a 4-channel Grass 7D polygraph recorder (Grass, Mass., U.S.A.). The right jugular vein was cannulated for the administration of drugs. Subsequently, a lateral thoracotomy was performed and the heart was suspended in a temporary pericardial cradle. A snare occluder was placed around the left anterior descending coronary artery (LAD). After completion of the surgical procedure the animals were allowed to stabilize for 30 min before LAD ligation. The coronary artery was occluded at time 0 by tightening of the occluder. After 25 min of acute myocardial ischemia, the occluder was re-opened to allow the reperfusion for 2 h. Following the 2 h reperfusion period, the coronary artery was re-occluded and Evans Blue dye (1 ml of 2% w/v) was injected into the left ventricle, via the right carotid artery cannula, to distinguish between perfused and non-perfused area at risk (AR) sections of the heart. The Evans Blue solution stains the perfused myocardium, while the occluded vascular bed remains uncolored. The animals were killed with an overdose of anesthetic and the heart excised. It was sectioned into slices of 3-4 mm, the right ventricular wall was removed, and the AR (pink) was separated from the non-ischemic (blue) area. The AR was cut into small pieces and incubated with p-nitroblue tetrazolium (NBT, 0.5 mg/ml) for 40 min at 37° C. In the presence of intact dehydrogenase enzyme systems (viable myocardium), nitro-blue tetrazolium (NBT) forms a dark blue formazan, whilst areas of necrosis lack dehydrogenase activity and therefore fail to stain. Pieces were separated according to staining and weighed to determine the infarct size as a percentage of the weight of the AR.
The following experimental groups were studied: • (1) Sham-operation (no occlusion of the LAD) plus administration of saline (Sham-Saline, 1 ml/kg i.v. n=9). • (2) LAD-occlusion (25 min) and reperfusion (2 h) plus administration of saline (myocardial infarction (“MI”)-Saline; 1 ml/kg i.v. bolus, 5 min prior to LAD occlusion) (n=10). • (3) LAD-occlusion and reperfusion plus administration of XL (25 mg/kg i.v. bolus at 5 min prior to LAD occlusion) (n=10).
All data were expressed as mean±s.e.mean of n observations, where n represented the number of animals studied. Infarct size was analyzed by 1-factorial ANOVA, followed by a Bonferroni's post hoc test for multiple comparisons. Hemodynamic data were analyzed by 2-way ANOVA followed by a Bonferroni's test. A P-value of less than 0.05 was considered to be statistically significant (when compared to Ml-Saline).

[1] = 25 mg/kg i.v. bolus t = −5 mins, Baseline
[2] = 25 mg/kg i.v. bolus, Occlusion 15 mins
[3] = 25 mg/kg i.v. bolus, Occlusion 25 mins
[4] = 25 mg/kg i.v. bolus, Reperfusion 60 mins
[5] = 25 mg/kg i.v. bolus, Reperfusion 120 mins

## Cc1ncc(CNc2ccc(-c3ccc(C(=N)N)cc3)cc2)c(CO)c1O [Compound XL]
[1]
  HR (heart rate): 443 ± 9 beats per min
  MAP (mean arterial pressure): 121 ± 7 mmHg
  PRI (pressure rate index): 54 ± 3 mmHg/min · 10^−3
25 mg/kg i.v. bolus, 5 minutes before regional ischemia, P<0.05, MI-Saline 48±3% of the AR
  infarct size (percentage of the area at risk): significant reduction
[2]
  HR (heart rate): 435 ± 11 beats per min
  MAP (mean arterial pressure): 119 ± 6 mmHg
  PRI (pressure rate index): 52 ± 3 mmHg/min · 10^−3
[3]
  HR (heart rate): 460 ± 10 beats per min
  MAP (mean arterial pressure): 118 ± 6 mmHg
  PRI (pressure rate index): 55 ± 3 mmHg/min · 10^−3
[4]
  HR (heart rate): 412 ± 10 beats per min
  MAP (mean arterial pressure): 89 ± 8 mmHg
  PRI (pressure rate index): 36 ± 3 mmHg/min · 10^−3
[5]
  HR (heart rate): 414 ± 13 beats per min
  MAP (mean arterial pressure): 70 ± 7 mmHg
  PRI (pressure rate index): 29 ± 3 mmHg/min · 10^−3
25 mg/kg i.v., P>0.05
  fall in MAP compared with MI-rats treated with Saline: similar
  fall in PRI compared with MI-rats treated with Saline: similar
Rats subjected to regional myocardial ischemia and reperfusion, P>0.05
  effect on HR: no significant effect
